Laboratory results reported in patent US20100186098A1, “TRANSGENIC ANIMAL MODELS OF PARKINSON'S DISEASE” (CORNELL UNIVERSITY, priority 2007, published 2010).

Tests used:
Type in all cases: in vivo, mouse
Settings in all cases: intraperitoneal; L-dopa 2 and 20 mg/kg with benserazide, tested 40 minutes after injection; apomorphine 10 mg/kg, tested 5 minutes after
[1] = tested on: hR1441G LRRK2 BAC mice (TG); assay: Cylinder test (rearing), pharmacological rescue
Experimental: FIGS. 9A-9B illustrate robust locomotor deficit in hR1441G LRRK2 BAC mice was rescued by L-Dopa and apomorphine. Wild type littermates (WT) and hR1441G LRRK2 BAC mice (TG) were tested for 3 min in the cylinder test. Rearing was counted as an indication of motor activity. (9A) An age dependent decline in rearing was detected. At 3, 6 and 10 months of age, WT mice reared an average 50.4±SE2.13, 51.4±SE1.28, 50.2.4±SE2.13 times, while TG mice reared 49.4±SE2.13, […] and zero times respectively. At 6 and 10 months of age, TG mice had significant reductions (P<0.005, P<0.001 respectively). (9B) This robust deficit in TG mice was rescued by 20 mg/kg L-Dopa with […] Benseramide. In saline injection controls, WT and TG mice reared 50.4±SE2.48 and 0.8±SE0.37 in 3 minutes, whereas in L-dopa injection, WT and TG mice reared 47.2±SE1.65 and 28.4±SE1.43.
hR1441G LRRK2 mice and WT littermates were kept in a 12:12 hour light/dark cycle in a temperature and humidity controlled room. All behavioral tests were conducted in the dark phase after two hours of the light/dark switch. […] Vertical rearing and horizontal limb steps were counted. In open field test, mice were transferred into a 45 cm×45 cm box for 10 minutes, video taped and analyzed by Ethovision, 3.0 from Noldus. The locomotor activity was measured by total distance and the number of tiles that the mice traveled. […]

[2] = tested on: hR1441G LRRK2 mice; assay: Home cage activity test, pharmacological rescue
Experimental: (§1) hR1441G LRRK2 mice and WT littermates were kept in a 12:12 hour light/dark cycle in a temperature and humidity controlled room. All behavioral tests were conducted in the dark phase after two hours of the light/dark switch. In home cage activity test, hR1441G LRRK2 mice and wild type littermates were video taped in home cage for spontaneous ambulatory activity without any disturbance. In cylinder test, hR1441G LRRK2 mice were individually transferred into a 12 cm diameter cylinder and video taped with a reflective mirror for 5 minutes. Vertical rearing and horizontal limb steps were counted. In open field test, mice were transferred into a 45 cm×45 cm box for 10 minutes, video taped and analyzed by Ethovision, 3.0 from Noldus. The locomotor activity was measured by total distance and the number of tiles that the mice traveled.
(§2) To address whether the loss of movement in hR1441G LRRK2 mice originated from a defect in the dopaminergic system, a pharmacological approach was applied. hR1441G LRRK2 mice and wild type littermates were injected with saline control or methyl L-dopa hydrochloride (Sigma, St. Louis, USA) in 0.9% NaCl with benserazide 6.5 mg/kg (Sigma). Two dosages of methyl L-dopa hydrochloride (2 mg/kg and 20 mg/kg) were tested. 0.3 ml of intraperitoneal injections was administered to each animal. Behavioral testing were performed 40 minutes after the injections. […]

[3] = tested on: hR1441G LRRK2 mice; assay: Open field test, pharmacological rescue
Experimental: as §1, §2

CN1CCc2cccc3c2[C@H]1Cc1ccc(O)c(O)c1-3 [apomorphine]
significantly rescued: Rescue from motor deficits in the cylinder test [1] | Rescue from motor deficits in home cage activities [2] | Rescue from motor deficits in the open field test [3]
